In patent US20100267561A1, “HERBICIDAL PYRIDAZINONE DERIVATIVES” (priority 2007, published 2010):

Experiments:
Type in all cases: in vivo
[1] = tested on: barnyardgrass (Echinochloa crus-galli); experiment: Test B flooded paddy test plant response
Outline: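 Rice, umbrella sedge, ducksalad and barnyardgrass at 2-leaf stage; pots flooded to 3 cm, compounds applied into paddy water, depth held throughout. Greenhouse 13 to 15 days, then visual rating vs untreated controls on 0–100 scale (0 no effect, 100 complete control); dash means no test result.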

[2] = tested on: velvetleaf (Abutilon theophrasti); experiment: Test B pre-/postemergence plant response; conditions: for Velvetleaf plant response rating: 8 g ai/ha
Outline: (§1)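 Visual scoring from 0 (no effect) to 100 (complete control) against untreated controls was done 13 to 15 days after greenhouse treatment. Chemicals were formulated in a surfactant-containing non-phytotoxic solvent and applied to soil preemergence or to 1- to 4-leaf (2-18 cm) plants postemergence.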

[3] = tested on: giant foxtail (Setaria faberii); experiment: Test B pre-/postemergence plant response; conditions: for Foxtail, Giant plant response rating: 8 g ai/ha
Outline: as §1

[4] = tested on: yellow nutsedge (Cyperus esculentus); experiment: Test B pre-/postemergence plant response; conditions: for Nutsedge, Yellow plant response rating: 8 g ai/ha
Outline: as §1

[5] = tested on: lambsquarters (Chenopodium album); experiment: Test B pre-/postemergence plant response; conditions: for Lambsquarters plant response rating: 8 g ai/ha
Outline: as §1

[6] = tested on: corn (Zea mays); experiment: Test B pre-/postemergence plant response; conditions: for Corn plant response rating: 8 g ai/ha
Outline: as §1

[7] = tested on: morningglory (Ipomoea coccinea); experiment: Test B pre-/postemergence plant response; conditions: for Morningglory plant response rating: 8 g ai/ha
Outline: as §1

[8] = tested on: blackgrass (Alopecurus myosuroides); experiment: Test B pre-/postemergence plant response; conditions: for Blackgrass plant response rating: 8 g ai/ha
Outline: as §1

[9] = tested on: eastern black (E.B.) nightshade (Solanum ptycanthum); experiment: Test B pre-/postemergence plant response; conditions: Preemergence
Outline: as §1

[10] = tested on: wild oat (Avena fatua); experiment: Test B pre-/postemergence plant response; conditions: for Oat, Wild plant response rating: 8 g ai/ha
Outline: as §1

[11] = tested on: bermudagrass (Cynodon dactylon); experiment: Test B pre-/postemergence plant response; conditions: for Bermudagrass plant response rating: 8 g ai/ha
Outline: as §1

[12] = tested on: canarygrass (Phalaris minor); experiment: Test B postemergence plant response; conditions: for Plant response rating, Canarygrass: Postemergence, scale 0 to 100
Outline: (§2)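 Visual injury score from 0 (none) to 100 (complete control) versus controls, taken 13 to 15 days after treatment in the greenhouse; chemicals applied postemergence, as formulated, to plants of 1- to 4-leaf stage (2 to 18 cm tall); dash denotes no test result.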

[13] = tested on: chickweed (Stellaria media); experiment: Test B postemergence plant response; conditions: for Plant response rating, Chickweed: Postemergence
Outline: as §2

[14] = tested on: windgrass (Apera spica-venti); experiment: Test B postemergence plant response; conditions: for Plant response rating, Windgrass: Postemergence
Outline: as §2

[15] = tested on: winter barley (Hordeum vulgare); experiment: Test B postemergence plant response; conditions: for Plant response rating, Barley: Postemergence, scale 0 to 100, 0 no effect, 100 complete control
Outline: as §2

[16] = Postemergence, 16 g ai/ha, scale 0 to 100
[17] = Postemergence, 31 g ai/ha, scale 0 to 100
[18] = Postemergence, 62 g ai/ha, scale 0 to 100, 0 no effect, 100 complete control
[19] = Preemergence, 16 g ai/ha, scale 0 to 100 (0 no effect, 100 complete control)
[20] = Preemergence, 31 g ai/ha, scale 0 to 100 (0 no effect, 100 complete control)
[21] = Preemergence, 31 g ai/ha, 0 to 100 scale, 0 no effect, 100 complete control
[22] = Preemergence, 62 g ai/ha, scale 0 to 100
[23] = 8 g ai/ha, postemergence, 0-100 scale
[24] = 62 g ai/ha, scale 0 to 100, 0 no effect, 100 complete control

Cc1cc(-c2ccc(Cl)cc2)nn1-c1c(OC(=O)c2ccccc2)cnn(C)c1=O [Compound 48]
15: Corn plant response rating ([6]; Preemergence, scale 0 to 100)
75: Plant response rating, Corn [6, 22]
30: Plant response rating, Barnyardgrass ([1]; Flood (flooded paddy test), 250 g ai/ha, scale 0 to 100, 0 no effect, 100 complete control)
0: Plant response rating, Barnyardgrass ([1]; Flood (flooded paddy test), 62 g ai/ha, scale 0 to 100, 0 no effect, 100 complete control) | Plant response rating, Barnyardgrass ([1]; Flood (flooded paddy test), 125 g ai/ha, scale 0 to 100, 0 no effect, 100 complete control) | Plant response rating, Barnyardgrass ([1]; Flood, 31 g ai/ha, scale 0 to 100) | Velvetleaf plant response rating ([2]; postemergence, 0-100 scale) | Plant response rating, Velvetleaf [2, 16] | Plant response rating, Velvetleaf [2, 17] | Plant response rating, Velvetleaf [2, 18] | Plant response rating, Velvetleaf [2, 19] | Plant response rating, Velvetleaf [2, 20] | Plant response rating, Velvetleaf ([2]; Preemergence, 62 g ai/ha, 0 to 100 scale, 0 no effect, 100 complete control) | Velvetleaf plant response rating ([2]; Preemergence, scale 0 to 100) | Plant response rating, Foxtail, Giant [3, 19] | Plant response rating, Foxtail, Giant [3, 21] | Plant response rating, Foxtail, Giant [3, 22] | Foxtail, Giant plant response rating ([3]; Preemergence, scale 0 to 100) | Nutsedge, Yellow plant response rating ([4]; postemergence, 0-100 scale) | Plant response rating, Nutsedge, Yellow [4, 16] | Plant response rating, Nutsedge, Yellow [4, 17] | Plant response rating, Nutsedge, Yellow [4, 18] | Plant response rating, Nutsedge, Yellow [4, 19] | Plant response rating, Nutsedge, Yellow [4, 20] | Plant response rating, Nutsedge, Yellow [4, 22] | Nutsedge, Yellow plant response rating ([4]; Preemergence, scale 0 to 100) | Lambsquarters plant response rating ([5]; postemergence, 0-100 scale) | Plant response rating, Lambsquarters [5, 16] | Plant response rating, Lambsquarters [5, 17] | Plant response rating, Lambsquarters [5, 18] | Plant response rating, Lambsquarters [5, 19] | Plant response rating, Lambsquarters [5, 21] | Plant response rating, Lambsquarters [5, 22] | Lambsquarters plant response rating ([5]; Preemergence, scale 0 to 100) | Morningglory plant response rating ([7]; postemergence, 0-100 scale) | Plant response rating, Morningglory [7, 16] | Plant response rating, Morningglory [7, 17] | Plant response rating, Morningglory [7, 18] | Plant response rating, Morningglory [7, 19] | Plant response rating, Morningglory [7, 20] | Plant response rating, Morningglory [7, 22] | Morningglory plant response rating ([7]; Preemergence, scale 0 to 100) | Plant response rating, Nightshade, E. B. ([9]; 16 g ai/ha, scale 0 to 100 (0 no effect, 100 complete control)) | Plant response rating, Nightshade, E. B. ([9]; 31 g ai/ha, scale 0 to 100 (0 no effect, 100 complete control)) | Nightshade, E. B. plant response rating ([9]; 8 g ai/ha, scale 0 to 100) | Oat, Wild plant response rating ([10]; Preemergence, scale 0 to 100) | Bermudagrass plant response rating ([11]; Preemergence, scale 0 to 100 (0 no effect, 100 complete control)) | Plant response rating, Bermudagrass [11, 19] | Plant response rating, Bermudagrass [11, 21] | Plant response rating, Bermudagrass [11, 22] | Canarygrass plant response rating [12, 23] | Plant response rating, Canarygrass ([12]; 16 g ai/ha) | Chickweed plant response rating [13, 23] | Plant response rating, Chickweed ([13]; 16 g ai/ha, scale 0 to 100) | Plant response rating, Chickweed ([13]; 31 g ai/ha, scale 0 to 100) | Plant response rating, Chickweed [13, 24] | Windgrass plant response rating [14, 23] | Barley plant response rating [15, 23] | Plant response rating, Barley ([15]; 16 g ai/ha)
60: Plant response rating, Windgrass ([14]; 31 g ai/ha, scale 0 to 100)
20: Plant response rating, Nightshade, E. B. ([9]; 62 g ai/ha, scale 0 to 100)
100: Plant response rating, Foxtail, Giant [3, 17] | Plant response rating, Foxtail, Giant [3, 18] | Plant response rating, Corn [6, 17] | Plant response rating, Corn [6, 18] | Plant response rating, Blackgrass [8, 22] | Plant response rating, Oat, Wild [10, 18] | Plant response rating, Bermudagrass [11, 17] | Plant response rating, Bermudagrass [11, 18]
90: Corn plant response rating ([6]; postemergence, 0-100 scale) | Plant response rating, Blackgrass [8, 19] | Plant response rating, Blackgrass [8, 21] | Plant response rating, Canarygrass ([12]; 31 g ai/ha)
80: Blackgrass plant response rating ([8]; Preemergence, scale 0 to 100) | Oat, Wild plant response rating ([10]; postemergence, 0-100 scale) | Plant response rating, Oat, Wild [10, 20] | Plant response rating, Windgrass [14, 24]
95: Plant response rating, Foxtail, Giant [3, 16] | Plant response rating, Corn [6, 16] | Plant response rating, Blackgrass [8, 18] | Plant response rating, Oat, Wild [10, 16]
70: Plant response rating, Corn [6, 21]
5: Plant response rating, Oat, Wild [10, 19]
40: Blackgrass plant response rating ([8]; postemergence, 0-100 scale) | Plant response rating, Windgrass ([14]; 16 g ai/ha, scale 0 to 100)
55: Plant response rating, Corn [6, 19]
98: Plant response rating, Oat, Wild [10, 17] | Plant response rating, Bermudagrass [11, 16]
85: Foxtail, Giant plant response rating ([3]; postemergence, 0-100 scale) | Plant response rating, Blackgrass [8, 16] | Plant response rating, Blackgrass [8, 17] | Plant response rating, Oat, Wild [10, 22]
10: Plant response rating, Barley ([15]; 62 g ai/ha)
65: Bermudagrass plant response rating ([11]; postemergence, 0-100 scale)
